# Measured values as given in publication PMC8533176, “1,5-Benzodiazepin-2(3H)-ones: In Vitro Evaluation as Antiparkinsonian Agents” (Antioxidants, 2021).
# How the values were obtained:
# SH-SY5Y cells [1] = test: Mitochondrial superoxide levels (MitoSOX); assay type: cell-based, human; conditions: H2O2 250 µM; compounds 24 h before
# Procedure: Mitochondrial superoxide levels were measured with MitoSOX red (3,8-phenanthridinediamine, 5-(60-triphenylphosphoniumhexyl)-5,6-dihydro-6-phenyl) from Molecular Probes (Thermo Fisher Scientific, 29851Willow Creek Road, Eugene, OR, USA). After SH-SY5Y cell treatment in 96-well culture black clear bottom plates, the medium was removed and cells were washed with PBS and afterward, MitoSOX red (final concentration of 5 µM) in 200 µL of PBS was added and incubated for 20 min at 37 °C. After incubation, the cells were washed with warm PBS buffer, and fluorescence was measured at 510 nm excitation/640 nm emission wavelengths in a Varioskan microplate reader (Thermo Fisher Scientific, Vantaa, Finland).
# SH-SY5Y cells [2] = test: GSH/GSSG ratio; assay type: cell-based, human; conditions: H2O2 500 µM 6 h; 10 and 20 µM 24 h before
# Procedure: GSH and GSSG levels were determined by the method of Vikas et al. with slight modifications. In summary, 2 × 10^5 SH-SY5Ycells were seeded in 6-well culture plates. After 24 h, cells were treated with the test compound and incubated for another 24 h. […] Then, cells were washed twice with cold 50 mM PBS buffer, detached, lysed with lysis buffer, and split into two samples: one for GSH analysis and the other for GSSG determination. For GSH analysis, 20 µL of ortho-phthaldehyde (OPT) 20 mg/mL and 280 µL of monobasic potassium phosphate buffer were added per 100 µL of sample replicate. Samples were vortexed and centrifuged at 4 °C at 13,000× g for 10 min. Afterward, 100 µL of supernatant per well was transferred to a black 96-well culture plate with a clear bottom. Fluorescence was measured in a Varioskan plate reader (λex = 360 nm; λem = 420 nm). Sample GSH concentrations were calculated from a standard calibration curve made by serial dilutions of GSH from 0 to 50 µM. […] Fluorescence was measured in a Varioskan plate reader (λex = 360 nm; λem = 420 nm). Sample GSSG concentrations were calculated from a standard calibration curve made by serial dilutions of GSSG from 0 to 200 µM.
# [3] = Ferric reducing antioxidant power (FRAP) assay; assay type: biochemical; parameters: FRAP Assay Trolox Equivalents: unit not given here
# Procedure: FRAP reagent was prepared by mixing 10 mL of 300 mM acetate buffer with 1 mL of 10 mM 2,4,6-tripyridyl-S-triazine (TPTZ) in HCl 40 mM and 1mL of FeCl3·6H2O 20 mM. […] Trolox was used as assay control.
# diffSH-SY5Y cells = test: Neuroprotection in differentiated SH-SY5Y cells, MTT; assay type: cell-based, human; conditions: H2O2 500 µM 24 h; 0, 2, 5, 10, 20, and 40 µM 24 h before
# SH-SY5Y cells [4] = test: LDH release under H2O2; assay type: cell-based, human; conditions: H2O2 250 µM 24 h; compounds 24 h before; Figure 9
# SH-SY5Y cells [5] = test: Neuroprotection in the MPP+ neurotoxicity-induced model, MTT; assay type: cell-based, human; conditions: MPP+ 700 µM 48 h; compounds 24 h before
# [6] = ABTS radical scavenging assay; assay type: biochemical
# Procedure: The mixture was stored in the dark at room temperature for 16 h. […] All the compounds tested were dissolved in EtOH. […] The degree of decolorization was calculated as the percentage reduction of absorbance. […] Trolox was used as a reference antioxidant.
# HepG2 cells = test: Cytotoxicity, MTT assay, HepG2; assay type: cell-based; conditions: Homo sapiens, HepG2; MTT, cytotoxicity; read-out: HepG2 IC50
# Method in brief: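 Cells treated with 5–200 µM compound (DMSO vehicle, four replicates) after overnight attachment. Viability read by MTT reduction (2 h, 37 °C, dark; formazan in DMSO, A570) relative to vehicle controls; IC50 from dose–response regression.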
# SH-SY5Y cells [7] = test: Neuroprotection in the 6-OHD neurotoxicity-induced model, MTT; assay type: cell-based, human; conditions: 6-OHD 250 µM 48 h; compounds 24 h before
smiles,measurement,setting,value
"O=C1CC(c2ccccc2)=Nc2ccccc2N1 [Compound 18, 4-Phenyl-1H-1,5-benzodiazepin-2(3H)-one]",Reduction in mitochondrial superoxide levels,SH-SY5Y cells [1],reduce mitochondrial superoxide levels in a dose-dependent manner
same,GSH/GSSG ratio,SH-SY5Y cells [2],"improved the GSH/GSSG ratios of cells under oxidative stress, although without statistical significance"
same,FRAP Assay Trolox Equivalents,[3],0.89
same,FRAP Assay Antioxidant Capacity (%) at 100 uM,[3]; compound at 100 uM,45.7%
same,FRAP Assay Antioxidant Capacity (%) at 200 uM,[3]; compound at 200 uM,65.1%
same,"Neuroprotection, diffSH-SY5Y cell viability (MTT)",diffSH-SY5Y cells,dose-dependent neuroprotectant activity
same,LDH leakage,SH-SY5Y cells [4],significant reduction at all the concentrations tested
same,"Neuroprotection, cell viability (MTT), MPP+ model",SH-SY5Y cells [5],small significant neuroprotection at 1 and 2 µM
same,IC50,[6]; 30-min incubation,187 ± 15.2 µM
same,ABTS Assay TEAC50,[6]; Equivalent antioxidant capacity at Trolox 50 mM,0.36
same,ABTS Assay TEAC100,[6]; Equivalent antioxidant capacity at Trolox 100 mM,0.21
same,IC50,HepG2 cells,224 ± 35 µM
same,"Neuroprotection, cell viability (MTT), 6-OHD model",SH-SY5Y cells [7],significant neuroprotection
